Experimental data as given in US11414443B2, “Phospholipid derivatives and their use as medicaments” (USTAV MOLEKULARNI GENETIKY AV CR, V.V.I., priority 2017, dated 2022).
Where two headings read alike, the source gives them in different places.

Key:
C32 (human melanoma) = experiment: Cytotoxicity in C32 tumor cell culture, ATP content; format: cell-based; details: C32 cells, 16 hours of culture
Description: (§1) After 16 hours of culture, cell state was recorded.
(§2) The cytotoxicity of the products was quantified by determining the ATP content in the cells and using neutral red intake, and the IC50ATP and IC50NR [μM] were determined.

[1] = test system: LMH (chicken hepatocarcinoma); experiment: cells; format: cell-based; details: 16 hours of culture, ATP content
Description: (§3) The cytotoxic activity of the products was tested in tumor cell cultures C32 (human melanoma), TIB-75 (inducing murine hepatocarcinoma), LMH (chicken hepatocarcinoma).
B) LMH cells were cultured in D-MEM medium containing 10% fetal serum and penicillin+streptomycin at 37° C. in air/5% CO2 atmosphere saturated with water vapor. Each well contained 5×10^4 cells and 0.5 ml medium. […] After 16 hours of culture, cell state was recorded.
as §2

[2] = test system: TIB-75 (inducing murine hepatocarcinoma); experiment: Cytotoxicity in TIB-75 tumor cell culture, ATP content; format: cell-based; details: TIB-75 cells, 16 hours of culture
Description: as §1, §2

[3] = test system: tumor cell cultures C32, TIB-75, LMH; experiment: Cell state and growth in tumor cell cultures, controls and comparison products; details: 0-240 μM, 16 hours of culture
Description: As a control, the starting phospholipids were used at the same concentrations and conditions.
as §3
(§4) A) C32 cells were cultured in D-MEM medium containing 10% fetal serum and penicillin+streptomycin at 37° C. in air/5% CO2 atmosphere saturated with water vapor. Each well contained 5×10^4 cells and 0.5 ml medium. The tested products were added to the cells at concentrations of 0, 2.5, 5, 10, 20, 40, 80, 160 and 240 μM. After 16 hours of culture, cell state was recorded.
as §4, with “B) LMH” for “A) C32”, “phospholipids” for “products”
as §4, with “C) TIB-75” for “A) C32”, “phospholipids” for “products”

[4] = test system: mammary gland 4T1 cancer cell line; experiment: Crystal violet cytotoxicity assay, E-DAPL/Dox combination; format: cell-based; details: for IC50: Mus musculus
Description: The potentiation of cytotoxic effect of E-DAPL/Dox combination was evaluated. The dose-effect relationship of individual drugs and E-DAPL/Dox mixture (ratio 202:1 was tested) was determined on mammary gland 4T1 cancer cell line by means of crystal violet assay (three measurements). The linearized Median-Effect Plot of dose response line provided both parameters (IC50; trend line m value) of Median-Effect Equation for individual and combination treatment [ref: Theoretical basis, experimental design, and computerized simulation of synergism and antagonism in drug combination studies; Ting-Chao Chou: Pharmacol Rev. 58(3), 2006, 621-81; Erratum in Pharmacol Rev. 2007; 59(1), 124]:
Potentiation of combination effect of E-DAPL/Dox/202:1 was expressed for the concentrations IC1 to IC60 by calculation of Combination index (CI) applying Combination Index Theorem for mutually nonexclusive drugs that obey higher order conditions [ref: Quantitative analysis of dose-effect relationships: the combined effects of multiple drugs or enzyme inhibitors; Ting-Chao Chou, Paul Talalay: Advances in Enzyme Regulation, Volume 22, 1984, Pages 27-55]: […]

Compound: 1-acyl-lysophosphatidylcholine [PC/E-DAPL]
- IC50 (C32 (human melanoma)): 50 µM
- IC50 [1]: 35 µM
- IC50 [2]: 45 µM

Compound: 1-acyl-lysophosphatidylethanolamine [PE/E-DAPL]
- IC50 (C32 (human melanoma)): 35 µM
- IC50 [1]: 30 µM
- IC50 [2]: 35 µM

Compound: 1-stearoyl-phosphatidylcholine [sn-1 stearoyl PC]
- cytotoxic activity: effect on phenotype and rate of cell growth [3]: did not affect the phenotype or reduce the rate of cell growth

Compound: 2-acyl-lysophosphatidylcholine [2-acyl PC (15-20% 1-acyl PC), reference compound]
- IC50 (C32 (human melanoma)): 200 µM
- IC50 [2]: 210 µM

Compound: COc1cccc2c1C(=O)c1c(O)c3c(c(O)c1C2=O)C[C@@](O)(C(=O)CO)C[C@@H]3O[C@H]1C[C@H](N)[C@H](O)[C@H](C)O1 [Dox, doxorubicin]
- concentration of Dox at IC25 ([4]; 4T1 cell line, Dox alone or within E-DAPL/Dox 202:1): 0.2306 µM
- IC50 ([4]; 4T1 cell line, Dox alone or within E-DAPL/Dox 202:1, read-out: concentration of Dox at IC50 level): 0.93 µM
- IC50 ([4]; 4T1 cells, crystal violet assay, calculated from the Median-Effect Plot, read-out: IC50): 0.93 µM

Compound: C[N+](C)(C)CCOP(=O)([O-])OCC(O)COC(=O)CCC1CCCC1 (stereo not drawn) [sn-1 cyclopentanepropionyl PC/E-DAPL]
- IC50 (C32 (human melanoma); Homo sapiens): 150 µM
- IC50 ([1]; Gallus gallus): 130 µM

Compound: CCCCCC(=O)OCC(O)COP(=O)([O-])OCC[N+](C)(C)C (stereo not drawn) [sn-1 hexanoyl PC/E-DAPL]
- IC50 (C32 (human melanoma); Homo sapiens): 130 µM
- IC50 ([1]; Gallus gallus): 135 µM
- IC50 ([2]; Mus musculus): 135 µM

Compound: CCCCCCCCCCCCCCCCCC(=O)OCC(O)COP(=O)([O-])OCC[N+](C)(C)C (stereo not drawn) [sn-1 stearoyl PC/E-DAPL]
- IC50 (C32 (human melanoma); Homo sapiens): 45 µM
- IC50 ([1]; Gallus gallus): 40 µM
- IC50 ([2]; Mus musculus): 45 µM

Compound: CC(CC(=O)OCC(O)COP(=O)([O-])OCC[N+](C)(C)C)CC(C)(C)C (stereo not drawn) [sn-1 trimethylhexanoyl PC/E-DAPL]
- IC50 (C32 (human melanoma); Homo sapiens): 130 µM
- IC50 ([1]; Gallus gallus): 140 µM

Compound: phosphatidylcholine [PC]
- cytotoxic activity: effect on phenotype and rate of cell growth [3]: did not affect the phenotype or reduce the rate of cell growth

Compound: phosphatidylethanolamine [PE]
- cytotoxic activity: effect on phenotype and rate of cell growth [3]: did not affect the phenotype or reduce the rate of cell growth
